# Results from US20220347294A1, “COMPOSITIONS AND METHODS FOR INCREASING THE EFFICACY OF IMMUNOTHERAPIES AND VACCINES” (The Regents of the University of Michigan, priority 2019, published 2022).
# Experiments:
# [1] = Fiber gel formation: inulin gel with added natural fibers or excipients; format: physicochemical; settings: heated at 70° C. for 5 minutes, cooled overnight
# From the text: FIG. 24: Inulin gel was formed after adding various amounts of natural fibers or excipients. The values shown are the maximum amount of each ingredient that could be added to 23% w/w inulin gel without disrupting the gel formation.
# Experiments were next conducted involving the formation of new fiber gels by combining inulin with other natural dietary fibers or pharmaceutical excipients. Briefly, inulin gels were manufactured by first mixing 23% w/w inulin together with other excipients, including resistant potato starch, pectin, guar gum, bean gum, gelatin, or glycerol. Other natural fibers would provide additional nutrient source for commensal microbiome, while other excipients served as thickening reagents in these formulations. The mixtures were then heated at 70° C. for 5 minutes, followed by cooling at room temperature overnight. During the manufacturing processes, both pre-dissolving and dry-blending were used in order to add the excipients, based on individual dissolutions in water. […] The ingredients were first mixed in water (top panel), heated at 70° C. for 5 minutes (middle panel), followed by cooling at room temperature overnight, leading to the formation of fiber gels (bottom panel) (FIG. 23).
# Experiments were next conducted that varied the amount of natural fibers and excipients added to inulin gel and determined the ideal composition for forming fiber gels. […] The indicated values are the maximum amount of each ingredient that could be added to 23% w/w inulin gel without disrupting gel formation.
# CT26 tumor = assay: Tumor microenvironment analysis (tumor-infiltrating cells, flow cytometry); format: in vivo, BALB/c mice; settings: combined with α-PD-1 IgG, day 24
# Experimental: After treatment with various samples, tumor tissues were excised at preset time points for analysis of tumor-infiltrating T cells. Tumor tissues were excised, cut into small pieces, and incubated with collagenase type IV (1 mg/ml) and of DNase I (0.1 mg/ml) with gentle shaking. After 30 min, cell suspension was filtered through a 70-μm strainer. Cells were washed with FACS buffer and blocked with anti-CD16/32 antibody. Cells were then stained with various antibodies (CD4 Monoclonal Antibody (GK1.5)-PE (eBioscience), APC-Anti-CD45 Rat Monoclonal Antibody (clone: 30-F11), FITC-Anti-CD45 Rat Monoclonal Antibody (clone: 30-F11), FITC-Rat Anti-Mouse CD8a Clone 53-6.7 (BD Biosciences), PE labeled H-2L-restricted SPSYVYHQF (SEQ ID NO.: 1), FITC-Anti-CD86 Rat Monoclonal Antibody (clone: GL-1, BioLegend), PE-CD11c Armenian Hamster anti Mouse (Clone: N418, eBioscience), PE-Cy7-Anti-mouse PD-1 (clone: 29F.1A12, BioLegend), FITC-CD44 Rat anti-Human/Mouse (clone: IM7, eBioscience), PE-Cy7-CD62L Monoclonal Antibody (MEL-14) (eBioscience), PE-Tcf1/Tcf7 (C63D9) Rabbit mAb (Cell Signaling Technology, #14456), PE-Cy7-Anti-mouse CD86 (Clone: GL1, BD Bioscience), FITC anti-mouse/human CD11b (M1/70, BioLegend), PE-anti-mouse F4/80 (BM8, BioLegend), or APC anti-mouse CD206 (MMR, BioLegend)). The cells were washed and stained with DAPI, or 7-AAD, or efluor 450 for flow cytometric analysis.
# [2] = tested on: AH1-specific CD8+ T cells; assay: Tetramer analysis of AH1-specific CD8+ T cells in PBMCs; format: in vivo, BALB/c mice; settings: for frequencies of AH1-specific CD8+ T cells among PBMCs, fold greater than α-PD-1 treatment alone: prophylactic oral gavage combined with α-PD-1 IgG, peripheral blood day 22
# From the text: The effect of these materials were next tested on systemic immune responses. The surrogate marker of tumor specific antigen, MHC-I minimal epitope of CT-26 gp70 (AH1) (H-2L^d-restricted SPSYVYHQF (SEQ ID NO.: 1)), was employed to quantitate the frequency of AH1-specific CD8^+ T cells among peripheral blood mononuclear cells (PBMCs). Mice orally gavaged with inulin and melatonin combined with α-PD-1 IgG induced 1.7-fold and 1.8-fold greater frequencies of AH1-specific CD8^+ T cells, compared with α-PD-1 treatment alone (FIGS. 1E and F).
# Peripheral blood mononuclear cells (PBMCs) were collected at preset times to analyze tumor antigen-specific CD8^+ T cells in the systemic circulation. Red blood cells were lysed, and the remaining cells were blocked with anti-CD16/32 antibody for 10 min and stained with peptide-MHC tetramer, including H-2L^d-restricted SPSYVYHQF (SEQ ID NO.: 1) or H-2D^b-restricted ASMTNMELM (SEQ ID NO.: 3). Both the tetramers were provided by NIH Tetramer Core Facility. Cells were also stained anti-CD8-APC (BD Biosciences, #553035) and DAPI for flow cytometric analysis.
# CT26 cells [3] = assay: Therapeutic oral gavage plus α-PD-1 in the CT26 tumor model; format: in vivo, BALB/c mice; settings: for combination efficacy with α-PD-1 against tumor growth after reducing the dosage by half: 60 mg for inulin, 50 mg/Kg for melatonin
# Experimental: (A) 1.5×10^5 CT26 cells were inoculated in BALB/c mice subcutaneously (sc) on day 0. Mice were gavaged from day 7 (5 times per week). On days 11, 15, 19 and 23, α-PD-1 was injected intraperitoneally (ip) at 100 μg per dose. (B) The average tumor growth curves for mice gavaged with various compounds. Data represent mean±SEM. (C) Individual tumor growth curves and (D) survival rate curves of various groups. […] All the data are from 2-3 independent experiments; n=10 (B, C, D), n=7-10 (E, F) *p<0.05, **p<0.01, analysed by two-way ANOVA (B), one-way ANOVA (E, F) or log-rank (Mantel-Cox) test.
# (B) The average tumor growth curves and individual tumor growth curve for mice gavaged with inulin or inulin gel (60 mg/dosage). 1.5×10^5 CT26 cells were inoculated in BALB/c mice subcutaneously. Gavage started from day 7 (5 times per week) and 100 μg of α-PD-1 was ip injected on days 11, 15, 19, 23 and 27. (C) The survival rate curves of various groups. […] PBS was used as a control. […] Shown are the average and individual tumor growth curves for tumor-bearing mice. IgG antibody was used as a control group. Data represent mean SEM. All the data are from 2-3 independent experiments; n=10 (B, C), n=5 (D, I), n=10-15 (E), n=4-7 (G, F), *p<0.05, **p<0.01, ***p<0.001, analysed by one-way ANOVA (E, F), two-way ANOVA (B, I), or log-rank (Mantel-Cox) test (C).
# Female C57BL/6 or BALB/c mice of 6-8-week old were obtained from Jackson Laboratory. BALB/c mice were inoculated with 1.5×10^5 CT26 cells per mouse, while C57BL/6 mice were inoculated with 1.2×10^6 MC38 cells per mouse on the right flank by subcutaneous injection on day 0. Tumor-bearing mice were randomly assigned to different groups on day 5. For prophylactic antitumor study, mice were received oral gavage with melatonin (100 mg/Kg bodyweight/dosage), EGCG (100 mg/Kg bodyweight/dosage), fucoidan (200 mg/Kg bodyweight/dosage), oligofructose (120 mg/dosage), or inulin (120 mg/dosage) three times for one week prior to tumor inoculation. After tumor inoculation, mice received oral gavage three times in the first week, followed by five times per week. Mice were injected i.p. with α-PD-1 antibody (100 μg/dosage) on days 10, 14, 18 and 22 post tumor inoculation. For the therapeutic therapy, mice were inoculated with tumor cells on day 0 as indicated above and treated with the indicated samples by oral gavage starting day 7 post tumor inoculation.
# [4] = SCFAs measurement in fecal pellets; format: in vivo, mice; settings: oral gavage of inulin
# Experimental: Fresh fecal pellets of mice were collected and weighted on day 20 post tumor inoculation and treatments. Fecal pellets were homogenized in DI water and centrifuged at 3000×g for 5 min. The pH of the supernatant was detected by pH meter. For SCFAs measurement, SCFAs were extracted from the fecal pellets using Milli-Q water. The solution was centrifuged for 5 min at 10000×g (4° C.) to pellet bacteria and other solids. The supernatant was collected, and SCFAs were measured via ion chromatography in University of Michigan Biological Station. The concentration of SCFAs was determined using an external standard method.
# CT26 cells [5] = assay: Prophylactic oral gavage plus α-PD-1 in the CT26 tumor model; format: in vivo, BALB/c mice
# Experimental: FIG. 1A-F: In vivo screening of the candidate materials to prophylactically improve the anti-tumor efficacy of α-PD-1. (A) Mice were prophylactically gavaged various samples on day −7 for three times. Then 1.5×10^5 CT26 cells were inoculated in BALB/c mice subcutaneously (s.c.) on day 0. Mice were gavaged three times again in the first week post tumor inoculation and 5 times per week from day 7. α-PD-1 was i.p. injected on days 10, 14, 18 and 24 at 100 μg/dose. (B) Individual tumor growth curves and (C) average tumor growth curves for mice gavaged with various compounds. (D) Survival rate curves of various groups. (E) The average frequency of AH1-specific CD8^+ T cells in peripheral blood on day 22. (F) The representative scatter plots were measured via flow cytometry. Data represent mean±SEM. *p<0.05, **p<0.01, analyzed by two-way ANOVA (B), or t-test (E), log-rank (Mantel-Cox) test (D).
# Among the FDA's list, five candidate materials were selected for the initial screening. Melatonin, found in pineal gland and gastrointestinal tracta, regulates sleep cycle and circadian rhythm. Epigallocatechin gallate (EGCG) is a natural antioxidant in plants. […]
# Mice were cared for under the guidelines from federal, state and local. […] Tumor size was measured at preset time, and tumor volume was calculated as length×width^2. […]
# gut microbiota = assay: Gut microbiome analysis by 16S rRNA sequencing of fecal pellets; format: in vivo, BALB/c mice
# Experimental: FIG. 4A-H: Responses of the diversity, richness, and structure of the gut microbiota. 1.5×10^5 CT26 cells were inoculated in BALB/c mice subcutaneously and gavaged from day 7 (5 times per week). α-PD-1 (100 μg per dose) was ip injected on days 11, 15, 19 and 23. The fecal pellets were collected on day 21 for 16s RNA analysis. (A) OTU number, (B) inverse Simposon diversity and (C) nonmetric multidimensional scaling (NMDS) score plot (based on Bray-Curtis) of gut microbiota in various groups. (D) Relative abundances of the gut microbiota at family level and […] genus level. (F) The relative abundances of lactobacillus, akkermansia, roseburia and Ruminococcus_1 in various groups. (G) The relationship of between the tumor sizes and the relative abundances of lactobacillus, akkermansia, roseburia and Ruminococcus_1. (H) The heatmap of SCFAs (lactate, propionate and butyrate) levels of various groups in fecal pellets. Data represent mean±SEM. *p<0.05, **p<0.01, ****p<0.0001, analysed by one-way ANOVA (A, B, F).
# Tumor-bearing mice received treatments as indicated above. […] Pooled amplicon library was then sequenced on the Illumina MiSeq platform using the 500 cycle MiSeq V2 Reagent kit (catalog no. MS-102-2003) according to the manufacturer's instructions with modifications of the primer set with custom read 1/read 2 and index primers added to the reagent cartridge. […]
# [6] = Potato starch gel formation; format: physicochemical; settings: in water, gentle stirring at 70° C., when the swelling was completed
# Experimental: FIG. 22: Food grade potato starch was pre-hydrated at concentrations of 0.1, 0.5, 2.5, and 5% w/v in water, followed by gentle stirring at 70° C. After cooling, gel formation was examined.
# Experiments were next conducted that examined gel formation using potato starch, another prebiotic natural fiber. The impact of potato starch concentration on gel formation was examined. Food grade potato starch (Bob's Red Mill) was pre-hydrated at desired concentrations of 0.1, 0.5, 2.5, and 5% w/v in water, followed by gentle stirring at 70° C. […] Potato starch was instantly gelatinized at concentrations above 5% w/v when the swelling was completed.
compound,measurement,setting,value
gelatin,maximum amount of ingredient that could be added to 23% w/w inulin gel without disrupting gel formation,[1],5.0 % (w/w)
pectin,maximum amount of ingredient that could be added to 23% w/w inulin gel without disrupting gel formation,[1],2 % (w/w)
inulin,intratumoral infiltration of T cells compared with α-PD-1 IgG alone,CT26 tumor,significantly enhanced
same,"frequencies of AH1-specific CD8+ T cells among PBMCs, fold greater than α-PD-1 treatment alone",[2],1.7 fold
same,AH1-specific CD8+ T cells among PBMCs,"[2]; therapeutic setting, day 18 and 24, combined with α-PD-1",significantly higher
same,combination efficacy with α-PD-1 against tumor growth after reducing the dosage by half,CT26 cells [3],did not compromise
same,animal survival,"CT26 cells [3]; therapeutic oral gavage from day 7, combined with α-PD-1 IgG",extended animal survival
same,anti-tumor efficacy,"CT26 cells [3]; therapeutic oral gavage from day 7, combined with α-PD-1 IgG, compared among candidate agents",strongest anti-tumor efficacy
same,"concentration of lactate, propionate and butyrate in fecal pellets",[4],increased
same,anti-tumor efficacy compared with α-PD-1 alone,"CT26 cells [5]; prophylactic oral gavage from one week before tumor inoculation, combined with α-PD-1 i.p. 100 μg/dose",best efficacy
same,mice still surviving on day 50,"CT26 cells [5]; prophylactic oral gavage, inulin 120 mg/dosage, combined with α-PD-1",60%
same,abundance of Roseburia in the gut,gut microbiota; oral gavage with α-PD-1,increased
same,"relative abundance of Akkermansia, Lactobacillus, Ruminococcus, and Butyricicoccus","gut microbiota; oral inulin followed by α-PD-1, compared with α-PD-1 alone or PBS group",increased
guar gum,maximum amount of ingredient that could be added to 23% w/w inulin gel without disrupting gel formation,[1],0.5 % (w/w)
OCC(O)CO [glycerol],maximum amount of ingredient that could be added to 23% w/w inulin gel without disrupting gel formation,[1],50 % (w/w)
potato starch,concentration at which potato starch was instantly gelatinized,[6],above 5 % w/v
same,maximum amount of ingredient that could be added to 23% w/w inulin gel without disrupting gel formation,[1],5 % (w/w)
"COc1ccc2[nH]cc(CCNC(C)=O)c2c1 [melatonin, reference compound]",intratumoral infiltration of T cells compared with α-PD-1 IgG alone,CT26 tumor,significantly enhanced
same,"frequencies of AH1-specific CD8+ T cells among PBMCs, fold greater than α-PD-1 treatment alone",[2],1.8 fold
same,combination efficacy with α-PD-1 against tumor growth after reducing the dosage by half,CT26 cells [3],did not compromise
